Measurements published in patent US8796001B2, “Metalloenzyme inhibitor compounds” (Viamet Pharmaceuticals, Inc., priority 2011, dated 2014).

Tested on: Puccinia recondita tritici = Puccinia triticina (PUCCRT)
Test: Fungicidal activity vs. leaf rust on wheat plants
Assay type: in vivo
Conditions: wheat (Yuma) sprayed at 50 ppm, inoculated the following day, rated 7-9 days later, read-out: Puccinia Rating (% Disease Control @ 50 ppm)
Excerpt: D. Evaluation of Fungicidal Activity vs. Leaf Rust (Causal Agent Puccinia Recondita Tritici=Puccinia Triticina; Bayer Code PUCCRT)
Each pot contained 3-8 seedlings. These plants were sprayed until wet with the formulated test compounds. The compounds were formulated at 50 ppm in 10 vol. % acetone plus 90 vol. % Triton X water (deionized water 99.99 wt %+0.01 wt % Triton X100), giving a “formulated test compound.” Formulated test compounds were applied to plants using a turn table sprayer fitted with two opposing air atomization nozzles which delivered approximately 1500 L/ha of spray volume. On the following day, the leaves were inoculated with an aqueous spore suspension of Puccinia recondita tritici and the plants were kept in high humidity overnight to permit spores to germinate and infect the leaf. The plants were then transferred to a greenhouse until disease developed on untreated control plants. Disease severity was evaluated 7-9 days later, depending on the speed of disease development.
In each case of Table 3, the Puccinia rating scale is as follows: […]

Compound `OC(Cn1cnnn1)(c1ccc(F)cc1F)C(F)(F)c1ccc(Oc2ccccc2F)cn1` (stereo not shown) [Compound 88, 2-(2,4-Difluorophenyl)-1,1-difluoro-1-(5-(2-fluorophenoxy)pyridin-2-yl)-3-(1H-tetrazol-1-yl)propan-2-ol] has a pest or weed control at 50 ppm of 80 to 100%.

Compound `N#Cc1ccc(Oc2ccc(C(F)(F)C(O)(Cn3cnnn3)c3ccc(F)cc3F)nc2)c(F)c1` (stereo not shown) [Compound 89, 4-((6-(2-(2,4-Difluorophenyl)-1,1-difluoro-2-hydroxy-3-(1H-tetrazol-1-yl)propyl)pyridin-3-yl)oxy)-3-fluorobenzonitrile] has a pest or weed control at 50 ppm of 80 to 100%.

Work on `OC(Cn1cnnn1)(c1ccc(F)cc1F)C(F)(F)c1ccc(Oc2ncc(C(F)(F)F)cc2Cl)cn1` (stereo not shown) [Compound 92, 1-(5-((3-chloro-5-(trifluoromethyl)pyridin-2-yl)oxy)pyridin-2-yl)-2-(2,4-difluorophenyl)-1,1-difluoro-3-(1H-tetrazol-1-yl)propan-2-ol] yielded a pest or weed control at 50 ppm of 80 to 100%.

`N#Cc1ccc(Oc2ccc(C(F)(F)C(O)(Cn3cnnn3)c3ccc(F)cc3F)nc2)nc1` (stereo not shown) [Compound 93, 6-((6-(2-(2,4-difluorophenyl)-1,1-difluoro-2-hydroxy-3-(1H-tetrazol-1-yl)propyl)pyridin-3-yl)oxy)nicotinonitrile] gave a pest or weed control at 50 ppm of 80 to 100%.

With `OC(Cn1cnnn1)(c1ccc(F)cc1F)C(F)(F)c1ccc(Oc2ccc(C(F)(F)F)cn2)cn1` (stereo not shown) [Compound 94, 2-(2,4-difluorophenyl)-1,1-difluoro-3-(1H-tetrazol-1-yl)-1-(5-((5-(trifluoromethyl)pyridin-2-yl)oxy)pyridin-2-yl)propan-2-ol] the pest or weed control at 50 ppm was 80 to 100%.

With `OC(Cn1cnnn1)(c1ccc(F)cc1F)C(F)(F)c1ccc(Oc2ccc(Cl)cn2)cn1` (stereo not shown) [Compound 95, 1-(5-((5-chloropyridin-2-yl)oxy)pyridin-2-yl)-2-(2,4-difluorophenyl)-1,1-difluoro-3-(1H-tetrazol-1-yl)propan-2-ol] the pest or weed control at 50 ppm was 80 to 100%.

`N#Cc1cc(Oc2ccc(C(F)(F)C(O)(Cn3cnnn3)c3ccc(F)cc3F)nc2)ccn1` (stereo not shown) [Compound 96, 4-((6-(2-(2,4-difluorophenyl)-1,1-difluoro-2-hydroxy-3-(1H-tetrazol-1-yl)propyl)pyridin-3-yl)oxy)picolinonitrile] showed a pest or weed control at 50 ppm of 60 to 79%.

Work on `OC(Cn1cnnn1)(c1ccc(F)cc1F)C(F)(F)c1ccc(Oc2ncccn2)cn1` (stereo not shown) [Compound 97, 2-(2,4-difluorophenyl)-1,1-difluoro-1-(5-(pyrimidin-2-yloxy)pyridin-2-yl)-3-(1H-tetrazol-1-yl)propan-2-ol] yielded a pest or weed control at 50 ppm of 80 to 100%.

For `OC(Cn1cnnn1)(c1ccc(F)cc1F)C(F)(F)c1ccc(Oc2ncc(Cl)cn2)cn1` (stereo not shown) [Compound 98, 1-(5-((5-chloropyrimidin-2-yl)oxy)pyridin-2-yl)-2-(2,4-difluorophenyl)-1,1-difluoro-3-(1H-tetrazol-1-yl)propan-2-ol], the pest or weed control at 50 ppm was 80 to 100%.

Compound `OC(Cn1cnnn1)(c1ccc(F)cc1F)C(F)(F)c1ccc(Oc2ncc(Br)cn2)cn1` (stereo not shown) [Compound 99, 1-(5-((5-bromopyrimidin-2-yl)oxy)pyridin-2-yl)-2-(2,4-difluorophenyl)-1,1-difluoro-3-(1H-tetrazol-1-yl)propan-2-ol] has a pest or weed control at 50 ppm of 80 to 100%.

`N#Cc1ncc(Oc2ccc(C(F)(F)C(O)(Cn3cnnn3)c3ccc(F)cc3F)nc2)cn1` (stereo not shown) [Compound 100, 5-((6-(2-(2,4-difluorophenyl)-1,1-difluoro-2-hydroxy-3-(1H-tetrazol-1-yl)propyl)pyridin-3-yl)oxy)pyrimidine-2-carbonitrile] was tested, and the pest or weed control at 50 ppm was 60 to 79%.

With `O=Cc1ccc(Oc2ccc(C(F)(F)C(O)(Cn3cnnn3)c3ccc(F)cc3F)nc2)nc1` (stereo not shown) [Compound 101, 6-((6-(2-(2,4-difluorophenyl)-1,1-difluoro-2-hydroxy-3-(1H-tetrazol-1-yl)propyl)pyridin-3-yl)oxy)nicotinaldehyde] the pest or weed control at 50 ppm was < 40%.

With `CO/N=C/c1ccc(Oc2ccc(C(F)(F)C(O)(Cn3cnnn3)c3ccc(F)cc3F)nc2)nc1` (stereo not shown) [Compound 102, (E)-6-((6-(2-(2,4-difluorophenyl)-1,1-difluoro-2-hydroxy-3-(1H-tetrazol-1-yl)propyl)pyridin-3-yl)oxy)nicotinaldehyde O-methyl oxime] the pest or weed control at 50 ppm was 80 to 100%.

With `OC(Cn1cnnn1)(c1ccc(F)cc1F)C(F)(F)c1ccc(Oc2ccc(/C=N/OCc3ccccc3)cn2)cn1` (stereo not shown) [Compound 103, (E)-6-((6-(2-(2,4-difluorophenyl)-1,1-difluoro-2-hydroxy-3-(1H-tetrazol-1-yl)propyl)pyridin-3-yl)oxy)nicotinaldehyde O-benzyl oxime] the pest or weed control at 50 ppm was 60 to 79%.

With `OC(Cn1cnnn1)(c1ccc(F)cc1F)C(F)(F)c1ccc(Oc2ncc(C(F)(F)F)cc2F)cn1` (stereo not shown) [Compound 104, 2-(2,4-difluorophenyl)-1,1-difluoro-1-(5-((3-fluoro-5-(trifluoromethyl)pyridin-2-yl)oxy)pyridin-2-yl)-3-(1H-tetrazol-1-yl)propan-2-ol] the pest or weed control at 50 ppm was 80 to 100%.

`OC(Cn1cnnn1)(c1ccc(F)cc1F)C(F)(F)c1ccc(Oc2ncc(C(F)(F)F)cn2)cn1` (stereo not shown) [Compound 105, 2-(2,4-difluorophenyl)-1,1-difluoro-3-(1H-tetrazol-1-yl)-1-(5-((5-(trifluoromethyl)pyrimidin-2-yl)oxy)pyridin-2-yl)propan-2-ol] showed a pest or weed control at 50 ppm of 80 to 100%.

`OC(Cn1cnnn1)(c1ccc(F)cc1F)C(F)(F)c1ccc(Oc2ccc(Br)cn2)cn1` (stereo not shown) [Compound 106, 1-(5-((5-bromopyridin-2-yl)oxy)pyridin-2-yl)-2-(2,4-difluorophenyl)-1,1-difluoro-3-(1H-tetrazol-1-yl)propan-2-ol] showed a pest or weed control at 50 ppm of 80 to 100%.

In the case of `N#Cc1cnc(Oc2ccc(C(F)(F)C(O)(Cn3cnnn3)c3ccc(F)cc3F)nc2)s1` (stereo not shown) [Compound 107, 2-((6-(2-(2,4-difluorophenyl)-1,1-difluoro-2-hydroxy-3-(1H-tetrazol-1-yl)propyl)pyridin-3-yl)oxy)thiazole-5-carbonitrile], the pest or weed control at 50 ppm is reported as < 40%.

`OC(Cn1cnnn1)(c1ccc(F)cc1F)C(F)(F)c1ccc(OCc2ccc(Cl)cn2)cn1` (stereo not shown) [Compound 113, 1-(5-((5-chloropyridin-2-yl)methoxy)pyridin-2-yl)-2-(2,4-difluorophenyl)-1,1-difluoro-3-(1H-tetrazol-1-yl)propan-2-ol] showed a pest or weed control at 50 ppm of 80 to 100%.

`OC(Cn1cnnn1)(c1ccc(F)cc1F)C(F)(F)c1ccc(OCc2ccc(C(F)(F)F)cn2)cn1` (stereo not shown) [Compound 114, 2-(2,4-difluorophenyl)-1,1-difluoro-3-(1H-tetrazol-1-yl)-1-(5-((5-(trifluoromethyl)pyridin-2-yl)methoxy)pyridin-2-yl)propan-2-ol] was tested, and the pest or weed control at 50 ppm was 80 to 100%.

`OC(Cn1cnnn1)(c1ccc(F)cc1F)C(F)(F)c1ccc(OCc2ccc(C(F)(F)F)nc2)cn1` (stereo not shown) [Compound 115, 2-(2,4-difluorophenyl)-1,1-difluoro-3-(1H-tetrazol-1-yl)-1-(5-((6-(trifluoromethyl)pyridin-3-yl)methoxy)pyridin-2-yl)propan-2-ol] gave a pest or weed control at 50 ppm of 80 to 100%.

In the case of `OC(Cn1cnnn1)(c1ccc(F)cc1F)C(F)(F)c1ccc(OCc2ccc(Cl)nc2)cn1` (stereo not shown) [Compound 116, 1-(5-((6-chloropyridin-3-yl)methoxy)pyridin-2-yl)-2-(2,4-difluorophenyl)-1,1-difluoro-3-(1H-tetrazol-1-yl)propan-2-ol], the pest or weed control at 50 ppm is reported as 80 to 100%.
